Data on twelve molecules can be found in publication PMC9414584, “Synthesis and Biological Evaluation of Indole-2-Carboxamides with Potent Apoptotic Antiproliferative Activity as EGFR/CDK2 Dual Inhibitors” (Pharmaceuticals, 2022).

A short description of data set [1]: Cell viability assay (MTT) on MCF-10A cells. It counts as cell-based. The settings on record: human, MCF-10A mammary gland epithelial cells. As for the experimental part: The MCF-10A (human mammary gland epithelial) cell line was used in the cell viability experiment. Compounds 5a–k, 6a–c, and 7 were incubated with MCF-10A cells for 4 days at 50 µM concentration, and the viability of cells was determined using the 3-(4,5-dimethylthiazol-2-yl)-2,5-diphenyltetrazolium bromide (MTT) test.. All compounds had no cytotoxic effects, and the vitality of the cells was more than 83% for most of the compounds examined.
The MCF-10A (human mammary gland epithelial) cell line was used in the cell viability experiment. Compounds 5a–k, 6a–c, and 7 were incubated with MCF-10A cells for 4 days at 50 µM concentration, and the viability of cells was determined using the 3-(4,5-dimethylthiazol-2-yl)-2,5-diphenyltetrazolium bromide (MTT) test.

For data set [2], the system named is epithelial cancer cell line (A-549). In words: Antiproliferative MTT assay, A-549. Type of data set: cell-based. The settings on record: Homo sapiens, A549; A-549, MTT; read-out: Antiproliferative Activity IC50 ± SEM A-549. An excerpt: (§1) Using the MTT assay with doxorubicin as the reference drug, the antiproliferative activities of 5a–k, 6a–c, and 7 against four human cancer cell lines, including pancreas cancer cell line (Panc-1), breast cancer cell line (MCF-7), colon cancer cell line (HT-29), and epithelial cancer cell line (A-549) were investigated.

The test system of data set [3] is breast cancer cell line (MCF-7). In words: Antiproliferative MTT assay, MCF-7. Type of data set: cell-based. The settings on record: Homo sapiens, MCF7; MCF-7, MTT; read-out: Antiproliferative Activity IC50 ± SEM MCF-7.
Excerpt: as §1

Data set [4] concerns pancreas cancer cell line (Panc-1). The data set is described as follows: Antiproliferative MTT assay, Panc-1. To be noted: Homo sapiens; Panc-1, MTT; read-out: Antiproliferative Activity IC50 ± SEM Panc-1. It counts as cell-based.
Excerpt: as §1

The test system of data set [5] is colon cancer cell line (HT-29). The data set is described as follows: Antiproliferative MTT assay, HT-29. It counts as cell-based. The settings on record: Homo sapiens; HT-29, MTT; read-out: Antiproliferative Activity IC50 ± SEM HT-29.
Excerpt: as §1

The test system of data set [6] is four human cancer cell lines (Panc-1, MCF-7, HT-29, A-549). In words: Antiproliferative MTT assay, average of four cancer cell lines (mean GI50). Type of data set: cell-based. To be noted: for IC50: Homo sapiens, average of A-549, MCF-7, Panc-1, HT-29, read-out: Antiproliferative Activity IC50 Average (GI50 against the four cell lines); for fold less potent than 5e (mean GI50): ratio of mean GI50 vs compound 5e.

The target in a further data set is EGFR (Homo sapiens, UniProt P00533). The data set is described as follows: EGFR-TK inhibitory assay. It counts as biochemical. To be noted: read-out: EGFR Inhibition IC50 ± SEM.
For the next data set, the target named is CDK2 enzyme (Homo sapiens, UniProt P24941). In words: CDK2 inhibitory assay.

Each structure is given as a SMILES string.

EGFR, sequence (P00533 25-1210): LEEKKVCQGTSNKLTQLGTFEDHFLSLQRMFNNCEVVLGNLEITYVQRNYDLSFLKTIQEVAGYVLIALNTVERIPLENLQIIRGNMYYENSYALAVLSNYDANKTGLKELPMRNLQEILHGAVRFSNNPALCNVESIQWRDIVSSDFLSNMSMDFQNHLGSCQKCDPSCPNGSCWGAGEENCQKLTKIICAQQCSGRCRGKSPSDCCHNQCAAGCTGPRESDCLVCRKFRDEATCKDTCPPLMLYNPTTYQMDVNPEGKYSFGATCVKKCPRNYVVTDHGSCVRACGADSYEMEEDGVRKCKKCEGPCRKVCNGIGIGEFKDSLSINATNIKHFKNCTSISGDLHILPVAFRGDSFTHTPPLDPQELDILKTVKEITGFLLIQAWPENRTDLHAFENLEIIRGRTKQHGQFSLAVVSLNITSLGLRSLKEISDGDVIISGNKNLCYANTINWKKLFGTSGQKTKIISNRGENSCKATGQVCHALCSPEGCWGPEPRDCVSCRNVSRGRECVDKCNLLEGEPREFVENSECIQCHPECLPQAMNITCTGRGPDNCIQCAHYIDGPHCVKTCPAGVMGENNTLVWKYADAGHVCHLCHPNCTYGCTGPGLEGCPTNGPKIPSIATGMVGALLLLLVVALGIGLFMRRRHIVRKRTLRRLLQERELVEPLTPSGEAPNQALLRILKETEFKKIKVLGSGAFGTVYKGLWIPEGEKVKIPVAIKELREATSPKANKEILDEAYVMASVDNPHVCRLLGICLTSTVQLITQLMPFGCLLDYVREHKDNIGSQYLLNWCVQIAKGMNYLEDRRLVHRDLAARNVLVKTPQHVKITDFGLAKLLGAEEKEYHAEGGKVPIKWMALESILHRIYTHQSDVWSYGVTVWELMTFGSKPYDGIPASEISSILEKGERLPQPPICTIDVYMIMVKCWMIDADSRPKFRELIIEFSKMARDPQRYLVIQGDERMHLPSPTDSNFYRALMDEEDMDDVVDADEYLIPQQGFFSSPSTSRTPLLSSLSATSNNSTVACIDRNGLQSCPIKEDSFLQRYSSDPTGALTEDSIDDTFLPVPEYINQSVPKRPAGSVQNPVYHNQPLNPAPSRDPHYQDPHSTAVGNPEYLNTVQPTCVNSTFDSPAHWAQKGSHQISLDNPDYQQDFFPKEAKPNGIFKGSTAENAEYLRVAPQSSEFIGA

For the molecule `Cc1c(C(=O)NCCc2ccccc2)[nH]c2c(F)cc(F)cc12` [Compound 5j, 5,7-Difluoro-3-methyl-N-phenethyl-1H-indole-2-carboxamide], the melting point was 198 to 200 °C. In data set [1], the viability at 4 days, 50 µM worked out at 83%. Further, the IC50 in [2] amounted to 1200 ± 100 nM. Also, the concentration for half-maximal inhibition (IC50) in [3] was determined as 1000 ± 100 nM. Also, the 50% inhibitory concentration (IC50) in data set [4] amounted to 1300 ± 100 nM. The IC50 in data set [5] came out at 1300 ± 100 nM. Further, the 50% inhibitory concentration (IC50) in [6] was determined as 1200 nM. The IC50 on EGFR was found to be 98 ± 8 nM. Further, the concentration for half-maximal inhibition (IC50) against CDK2 enzyme came to 34 ± 3 nM.

As for `Cc1c(C(=O)NCCc2ccccc2)[nH]c2cc(Cl)ccc12` [Compound 5f, 6-Chloro-3-methyl-N-phenethyl-1H-indole-2-carboxamide], the melting point is 170 to 172 °C. Moreover, the viability at 4 days, 50 µM in [1] came to 90%. Also, the half-maximal inhibitory concentration (IC50) in [2] worked out at 1900 ± 200 nM. Further, the IC50 in [3] stood at 1700 ± 200 nM. The IC50 in [4] came out at 2100 ± 200 nM. For the same molecule, the half-inhibitory concentration (IC50) in data set [5] worked out at 2100 ± 200 nM. The half-maximal inhibitory concentration (IC50) in data set [6] was determined as 1950 nM. For the same molecule, the “times more potent than 5a” value in [6] (vs compound 5a) stood at 1.9 times.

As to `Cc1c(C(=O)N2CCN(c3ccccc3)CC2)[nH]c2c(F)cc(F)cc12` [Compound 6c, (5,7-Difluoro-3-methyl-1H-indol-2-yl)(4-phenylpiperazin-1-yl)methanone], the melting point lay within 171 to 173 °C. In data set [1], this molecule returned a viability at 4 days, 50 µM of 89%. The 50% inhibitory concentration (IC50) in [2] turned out to be 2200 ± 200 nM. Further, the IC50 in data set [3] is 2100 ± 200 nM. The IC50 in data set [4] is 2400 ± 200 nM. In addition, the IC50 in data set [5] was 2500 ± 200 nM. Besides, the half-inhibitory concentration (IC50) in data set [6] turned out to be 2300 nM.

In the case of `Cc1c(C(=O)NCCc2ccccc2)[nH]c2ccc(Cl)cc12` [Compound 5a, 5-Chloro-3-methyl-N-phenethyl-1H-indole-2-carboxamide], the melting point fell in the range of 182 to 184 °C. This molecule yielded a viability at 4 days, 50 µM in data set [1] of 89%. Further, in data set [2], the half-inhibitory concentration (IC50) worked out at 3700 ± 300 nM. Besides, the IC50 in data set [3] was found to be 3200 ± 300 nM. Moreover, the IC50 in data set [4] is 3900 ± 300 nM. Besides, in [5], the half-maximal inhibitory concentration (IC50) was 3900 ± 300 nM. Also, in data set [6], the IC50 was found to be 3700 nM and the “fold less potent than 5e (mean GI50)” value is reported as “roughly four-fold”.

Consider `Cc1c(C(=O)NCc2ccccc2)[nH]c2ccc(Cl)cc12` [Compound 7, N-Benzyl-5-chloro-3-methyl-1H-indole-2-carboxamide], for which the melting point is 203 to 205 °C. The viability at 4 days, 50 µM in data set [1] was found to be 91%. For the same molecule, the IC50 in [2] was determined as 4100 ± 400 nM. Also, in data set [3], the concentration for half-maximal inhibition (IC50) amounted to 4000 ± 400 nM. Also, in data set [4], the half-inhibitory concentration (IC50) is 4400 ± 400 nM. Also, the concentration for half-maximal inhibition (IC50) in data set [5] came to 4600 ± 400 nM. For the same molecule, in data set [6], the IC50 worked out at 4300 nM.

In turn, `Cc1c(C(=O)NCCc2ccc(N3CCCCC3)cc2)[nH]c2ccc(Cl)cc12` [Compound 5c, 5-Chloro-3-methyl-N-(4-(piperidin-1-yl)phenethyl)-1H-indole-2-carboxamide] registered a melting point of 216 to 218 °C. In [1], this molecule yielded a viability at 4 days, 50 µM of 87%. The IC50 in [2] turned out to be 1700 ± 200 nM. Besides, the IC50 in data set [3] came to 1400 ± 200 nM. In addition, the 50% inhibitory concentration (IC50) in data set [4] came to 1800 ± 200 nM. In addition, the IC50 in data set [5] amounted to 1800 ± 200 nM. Also, in data set [6], the IC50 was 1700 nM and the “fold less potent than 5e (mean GI50)” value is recorded as “at least 1.8 fold”. Moreover, in data set [6] (ratio of mean GI50 vs compound 5d), the “fold reduction of mean GI50 potency vs 5d” value is listed as at least 1.6 fold.

The molecule `Cc1c(C(=O)NCCc2ccc(N(C)C)cc2)[nH]c2ccc(Cl)cc12` [Compound 5b, 5-Chloro-N-(4-(dimethylamino)phenethyl)-3-methyl-1H-indole-2-carboxamide] registered a melting point of 202 to 204 °C. This molecule registered a viability at 4 days, 50 µM in [1] of 87%. The IC50 in data set [2] is 3200 ± 300 nM. For the same molecule, the half-maximal inhibitory concentration (IC50) in data set [3] came to 2900 ± 300 nM. The IC50 in data set [4] turned out to be 3500 ± 300 nM. For the same molecule, in data set [5], the IC50 came to 3600 ± 300 nM. For the same molecule, the IC50 in [6] amounted to 3300 nM.

`Cc1c(C(=O)N2CCN(c3ccccc3)CC2)[nH]c2cc(Cl)ccc12` [Compound 6b, (6-Chloro-3-methyl-1H-indol-2-yl)(4-phenylpiperazin-1-yl)methanone] had a melting point of 180 to 182 °C. Besides, in [1], the viability at 4 days, 50 µM came to 91%. Also, in data set [2], the half-inhibitory concentration (IC50) is 2500 ± 200 nM. Also, the IC50 in [3] was 2300 ± 200 nM. In addition, the IC50 in data set [4] was 2650 ± 200 nM. In addition, the IC50 in data set [5] came out at 2800 ± 200 nM. Also, the half-maximal inhibitory concentration (IC50) in data set [6] was determined as 2600 nM.

As for `Cc1c(C(=O)NCCc2ccc(N3CCCCC3)cc2)[nH]c2cc(Cl)ccc12` [Compound 5g, 6-Chloro-3-methyl-N-(4-(piperidin-1-yl)phenethyl)-1H-indole-2-carboxamide], the melting point is 218 to 220 °C. Further, in [1], the viability at 4 days, 50 µM worked out at 89%. Moreover, the 50% inhibitory concentration (IC50) in data set [2] was 4900 ± 500 nM. The IC50 in [3] was 4800 ± 500 nM. The IC50 in [4] was 5200 ± 500 nM. In data set [5], the IC50 stood at 5100 ± 500 nM. Also, in [6], the IC50 amounted to 5000 nM. Further, the “times lower antiproliferative efficacy than 5c” value in [6] (vs compound 5c) is given as 3 times.

In turn, `Cc1c(C(=O)NCCc2ccc(N3CCCCC3)cc2)[nH]c2c(F)cc(F)cc12` [Compound 5k, 5,7-Difluoro-3-methyl-N-(4-(piperidin-1-yl)phenethyl)-1H-indole-2-carboxamide] showed a melting point of 192 to 194 °C. In addition, the viability at 4 days, 50 µM in data set [1] was found to be 87%. Moreover, the IC50 in [2] was determined as 1400 ± 200 nM. In addition, the IC50 in [3] was found to be 1200 ± 100 nM. For the same molecule, the concentration for half-maximal inhibition (IC50) in [4] was 1500 ± 200 nM. In addition, the concentration for half-maximal inhibition (IC50) in data set [5] came out at 1500 ± 200 nM. Moreover, in data set [6], the half-inhibitory concentration (IC50) turned out to be 1400 nM. Also, the IC50 at EGFR worked out at 129 ± 11 nM. In addition, at CDK2 enzyme, the 50% inhibitory concentration (IC50) worked out at 19 nM.

With `Cc1c(C(=O)N2CCN(c3ccccc3)CC2)[nH]c2ccc(Cl)cc12` [Compound 6a, (5-Chloro-3-methyl-1H-indol-2-yl)(4-phenylpiperazin-1-yl)methanone], the melting point lay within 165 to 167 °C. Moreover, in [1], the viability at 4 days, 50 µM was found to be 90%. Besides, in data set [2], the half-inhibitory concentration (IC50) was 2900 ± 300 nM. Further, in data set [3], the IC50 was found to be 2600 ± 200 nM. In data set [4], the IC50 is 2800 ± 200 nM. Besides, the IC50 in data set [5] was found to be 2900 ± 200 nM. For the same molecule, in data set [6], the IC50 came out at 2800 nM.

`Cc1c(C(=O)NCCc2ccc(N3CCOCC3)cc2)[nH]c2c(Cl)cc(Cl)cc12` [Compound 5i, 5,7-Dichloro-3-methyl-N-(4-morpholinophenethyl)-1H-indole-2-carboxamide] gave a melting point of 185 to 187 °C. This molecule returned a viability at 4 days, 50 µM in data set [1] of 90%. For the same molecule, the IC50 in [2] is 1550 ± 200 nM. In data set [3], the IC50 was 1300 ± 100 nM. For the same molecule, the 50% inhibitory concentration (IC50) in data set [4] is 1600 ± 200 nM. For the same molecule, the half-maximal inhibitory concentration (IC50) in data set [5] came out at 1650 ± 200 nM. Besides, in data set [6], the IC50 is 1500 nM. Besides, on EGFR, the IC50 was 137 ± 12 nM. The molecule also showed an IC50 at CDK2 enzyme of 27 ± 3 nM.
